This is an account of results in PMC8312610, “F4, a collagen XIX-derived peptide, inhibits tumor angiogenesis through αvβ3 and α5β1 integrin interaction” (Cell Adhesion & Migration, 2021).

For assay [1], the system named is Sprague Dawley rat aortic rings. Kind of assay: Ex vivo rat aortic ring assay (endothelial cell outgrowth). It is filed as cell-based. The procedure: Figure 3. NC1(XIX) and F4 inhibit endothelial cell ex vivo migration. Rat aortic rings were embedded in Matrigel in 24 well-plate and then incubated with or without 40 μM NC1(XIX) or F4 for 14 days. Micro-vessel outgrowth was observed under an inverted microscope after 14 days and photographed (a). Cell outgrowth from the tissue explant was measured using a home-made macro based on ImageJ analysis software. The results are presented as mean ± SD (n = 5 replicates) (b). The experiment was repeated twice (N = 2)
The ex vivo rat aortic ring assay was adapted from Baker et al.. Thoracic aorta was dissected from Sprague Dawley rat and stored in Opti-MEM (ThermoFisher, ref 31985062) supplemented with 1% penicillin/streptomycin in a Petri dish. Aorta was then cut into 0.5 mm rings that were incubated in Opti-MEM overnight at +37°C in a Petri dish. Matrigel (7 mg/mL) was loaded in 24-well plate and allowed to polymerize at +37°C for 30 min. The rings were carefully transferred from the Petri dish onto the Matrigel coated wells and were completely embedded by addition of Matrigel. The plate was incubated at +37°C for 30 min. Opti-MEM supplemented with 30 ng/mL VEGF with or without 40 μM NC1(XIX) or F4 was added. Plate was incubated at +37°C in a humid atmosphere containing 5% CO2 for 14 days. The supplemented culture medium was changed every 3 days. Rings were imaged under an inverted light microscope at 14 days. Quantitative evaluation of the angiogenic sprouting was determined by measuring the number of endothelial cell outgrowth from the primary tissue explant using a homemade macro based on ImageJ analysis software. The first step consisted in the semi-automatic selection of aortic ring shape at day 0 by manual threshold allowing the design of a top hat filter to obtain a relevant mask of this structure. The mask was then substracted from day 14 image to keep only outgrowing cells. The second step consisted in a manual threshold and the use of ‘Analyze Particules’ tool involving size criteria. The total cell number of cell outgrowing from the ring was determined.

In a further assay the test system is α5β1 integrin. Kind of assay: F4 affinity chromatography of HUVEC extracts with western blot. Format: binding, human. As to conditions: HUVEC protein extract, F4 peptide-Sepharose (F4 reduced with DTT), NaCl elution 0.15, 0.6 and 1.0 M, +4°C, N = 2. On the procedure:
(§1) HUVEC were cultured as previously described in a Nunclon® 150 cm^2 flask. At 80%-confluence, cells were washed with HBSS and scrapped in lysis buffer (RIPA buffer, Sigma, ref R0278-50ML) supplemented with 1% (v/v) Halt Protease Inhibitor Cocktail (ThermoFisher, ref 78430). Cell lysates were incubated for 30 min at +4°C and vortexed every 5 min. Unsoluble debris were pelleted by centrifugation at 10,000 g for 10 min at +4°C. Bio-Rad Protein Assay (Bio-Rad, Marne-La-Coquette, France) was used to determine the protein concentrations according to the manufacturer’s instructions. […] HUVEC protein extracts were chromatographed at +4°C. Unbound protein were removed with 30 mL of washing buffer (10 mM Tris, 1 mM CaCl2, 1 mM MgCl2, pH 7.6, 1% (v/v) Protease Inhibitor Cocktail and 0.1% (w/v) octylglucoside (Sigma, ref O8001-100 MG)) according to the manufacturer’s instructions. Proteins bound to the affinity column were then eluted with elution buffer (10 mM Tris, pH 7.6, 1% (w/v) PIC and 0.1% (w/v) octylglucoside) supplemented with increasing concentrations of NaCl (0.15, 0.6 and 1 M). Absorbance was read at 280 nm to check protein elution and fractions corresponding to the different NaCl concentrations were pooled and concentrated using NanoSep Centrifugal Devices (cutoff 10 kDa; Pall). […]
For orientation: Immunoblotting shows a protein as a band on a membrane.

A further assay concerns αvβ3 integrin. The description is as above. It is filed as binding, human. As to conditions: HUVEC protein extract, F4 peptide-Sepharose (F4 reduced with DTT), NaCl elution 0.15, 0.6 and 1.0 M, +4°C, N = 2. On the procedure:
as §1

Positions of bridges follow the written chain, without caps; N, C: chain ends. No end group written: not given here.

On to “CNPEDCLYPVSHAHQR (disulfide 1-6 (inferred)) [F4, collagen XIX-derived peptide, released by plasmin from type XIX collagen]”, for which, in assay [1] (40 μM, 14 days, Opti-MEM with 30 ng/mL VEGF), the “cell outgrowth, F4 compared with NC1(XIX)” value is reported as “even stronger than NC1(XIX) effect”. For the same sequence, in assay [1] (40 μM, 14 days, Opti-MEM with 30 ng/mL VEGF, Matrigel, mean ± SD (n = 5), N = 2, p < 0.01 NC1(XIX), p < 0.001 F4), the “change of cell outgrowth from aortic ring vs control” value is on record as −78%. Moreover, the “anti-angiogenic effect on aortic endothelial sprouting, F4 compared with NC1(XIX) (discussion)” value in assay [1] (ex vivo) is recorded as “even greater than the whole NC1(XIX) domain”. In assay [1] (rat aortic ring assay (abstract)), the “inhibition of endothelial sprouting” value is listed as “endothelial sprouting in a rat aortic ring assay”. In addition, in the assay on α5β1 integrin, the “α5 and β1 subunits bound to F4 column (western blot)” value is “two bands in 0.6 M NaCl eluted sample which matched the 140 and 120 kDa bands of the recombinant α5β1 integrin”. The “αv and β3 subunits bound to F4 column (western blot)” value in the assay with αvβ3 integrin is “two bands which matched the 150 and 110 kDa bands of the recombinant αvβ3 integrin”.
